From EPA's ToxRefDB 2

Columns and labels:
rat [1] = details: Subchronic oral toxicity in rodents, wistar, Feed, dose end: 90 day, group: systemic, systemic / organ weight / thyroid gland / absolute + systemic / organ weight / thyroid gland / relative to body weight + systemic / …
dog [2] = details: Subchronic oral toxicity in nonrodent, beagle, Feed, dose end: 90 day, group: systemic
dog [3] = details: Chronic toxicity, beagle, Oral, Feed, dose end: 52 week, group: systemic
rabbit = details: Prenatal developmental toxicity study, himalayan, Oral, Gavage/Intubation, dose end: 28 GD
rat [4] = details: Chronic toxicity, wistar, Oral, Feed, dose end: 104 week, group: systemic
rat [5] = details: Multigenerational reproductive toxicity study, wistar, Oral, Feed, dose end: 2 generation
mouse [6] = details: Carcinogenicity, other, Oral, Feed, dose end: 18 month, group: systemic
mouse [7] = details: Subchronic oral toxicity in rodents, other, Feed, dose end: 90 day, group: systemic
rat [8] = details: Carcinogenicity, wistar, Oral, Feed, dose end: 24 month, group: systemic
[9] = systemic / clinical chemistry / alkaline phosphatase (alp/alk) / alkaline phosphatase (alp/alk) + systemic / organ weight / liver / absolute…
[10] = systemic / hematology / blood clotting / blood clotting - prothrombin time
[11] = group: developmental, developmental / developmental malformation / bone / incomplete ossification
[12] = group: maternal, reproductive / reproductive performance / aborted / aborted + reproductive / reproductive performance / premature delivery / premature …
[13] = systemic / clinical chemistry / alanine aminotransferase (alt/sgpt) / alanine aminotransferase (alt/sgpt) + systemic / clinical chemistry / …
[14] = systemic / organ weight / thyroid gland / absolute + systemic / pathology microscopic / thyroid gland / hyperplasia + systemic / pathology …
[15] = group: offspring, systemic / in life observation / body weight / offspring (pup) weight + systemic / in life observation / body weight / offspring (pup) …
[16] = group: offspring, systemic / organ weight / thymus / absolute
[17] = group: parental, systemic / pathology microscopic / liver / degeneration + systemic / pathology microscopic / liver / hypertrophy
[18] = group: reproductive, reproductive / reproductive performance / implantations / implantations
[19] = systemic / in life observation / body weight / body weight + systemic / organ weight / liver / absolute + systemic / organ weight / liver / …
[20] = systemic / organ weight / liver / absolute
[21] = systemic / organ weight / liver / absolute + systemic / organ weight / liver / relative to body weight + systemic / pathology microscopic / …

`O=C(Nc1ccccc1-c1ccc(Cl)cc1)c1cccnc1Cl` [Boscalid] showed an LEL (rat [1]) of 137 mg/kg/day, an LOAEL (rat [1]) of 137 mg/kg/day and an NEL (rat [1]) of 34 mg/kg/day. The NOAEL (rat [1]) was 34 mg/kg/day, the LOAEL (dog [2]; [9]) was 78.1 mg/kg/day and the NOAEL (dog [2]; [9]) was 7.6 mg/kg/day. The LEL (dog [2]; [10]) was 8.1 mg/kg/day, the NEL (dog [2]; [10]) was < 8.1 mg/kg/day and the LOAEL (dog [3]; systemic / clinical chemistry / alkaline phosphatase (alp/alk) / alkaline phosphatase (alp/alk) + systemic / organ weight / liver / absolute) was 57.4 mg/kg/day. For the same molecule, the LEL (dog [3]; [9]) was 57.4 mg/kg/day, the NEL (dog [3]; [9]) was 21.8 mg/kg/day and the NOAEL (dog [3]; [9]) was 21.8 mg/kg/day. The LEL (rabbit; [11]) was 1000 mg/kg/day, the LOAEL (rabbit; [11]) was > 1000 mg/kg/day and the NEL (rabbit; [11]) was 300 mg/kg/day. The NOAEL (rabbit; [11]) was ≥ 1000 mg/kg/day, the LEL (rabbit; [12]) was 1000 mg/kg/day and the LOAEL (rabbit; [12]) was 1000 mg/kg/day. The NEL (rabbit; [12]) was 300 mg/kg/day, the NOAEL (rabbit; [12]) was 300 mg/kg/day and the LEL (rat [4]; [13]) was 5.9 mg/kg/day. For the same molecule, the NEL (rat [4]; [13]) was < 5.9 mg/kg/day, the LOAEL (rat [4]; [14]) was 110 mg/kg/day and the NOAEL (rat [4]; [14]) was 21.9 mg/kg/day. For the same molecule, the LOAEL (rat [5]; [15]) was 124 mg/kg/day, the NOAEL (rat [5]; [15]) was 12.3 mg/kg/day and the LEL (rat [5]; [16]) was 12.3 mg/kg/day. For the same molecule, the NEL (rat [5]; [16]) was < 12.3 mg/kg/day, the LOAEL (rat [5]; group: parental, systemic / pathology microscopic / liver / degeneration) was 1030 mg/kg/day and the NEL (rat [5]; [17]) was 10.1 mg/kg/day. It also gave an NOAEL (rat [5]; [17]) of 101 mg/kg/day, an LEL (rat [5]; group: parental, systemic / pathology microscopic / liver / hypertrophy) of 101 mg/kg/day and an LEL (rat [5]; [18]) of 10.7 mg/kg/day. The LOAEL (rat [5]; [18]) was > 1060 mg/kg/day, the NEL (rat [5]; [18]) was < 10.7 mg/kg/day and the NOAEL (rat [5]; [18]) was ≥ 1060 mg/kg/day. For the same molecule, the LOAEL (mouse [6]; systemic / in life observation / body weight / body weight) was 331 mg/kg/day, the NEL (mouse [6]; [19]) was 13 mg/kg/day and the NOAEL (mouse [6]; [19]) was 65 mg/kg/day. The LEL (mouse [6]; systemic / in life observation / body weight / body weight + systemic / organ weight / liver / relative to body weight) was 65 mg/kg/day, the LEL (mouse [7]; [20]) was 42 mg/kg/day and the NEL (mouse [7]; [20]) was < 42 mg/kg/day. For the same molecule, the LOAEL (mouse [7]; [21]) was 788 mg/kg/day, the NOAEL (mouse [7]; [21]) was 197 mg/kg/day and the NEL (rat [8]; systemic / in life observation / mortality / mortality + systemic / in life observation / body weight / body weight + systemic / in life …) was 1020 mg/kg/day. For the same molecule, the LOAEL (rat [8]; systemic / pathology microscopic / thyroid gland / hyperplasia + systemic / pathology microscopic / thyroid gland / hypertrophy) was 116 mg/kg/day and the NOAEL (rat [8]; systemic / pathology microscopic / thyroid gland / hyperplasia + systemic / pathology microscopic / thyroid gland / hypertrophy + systemic…) was 23 mg/kg/day.
